# Patent US20030138533A1, “Food and beverage perservative” (Nutraceutical Clinical Laboratories International, Inc., priority 2002, published 2003)
# Test system: mold
# Test: Mold growth in white pan bread during storage (shelf-life test)
# Details: white pan bread mix; test preservative about 3.5% of total mix weight, control 0.27% calcium propionate; same packaging and storage; 90 day test period
# Description: The test sample preservative composition as shown in Table 1 was added to white pan bread mix in the final minute of mixing after yeast and salt had been blended into the mixture. The preservative composition comprised about 3.5% of the total weight of the mix. A control sample containing 0.27% calcium propionate was added to another identical sample of white pan bread mix. The control sample molded in 12 days. The test sample remained free of any sign of mold growth during a 90 day test period. Both the test sample and the control sample were packaged and stored in the same conditions throughout the test period.
smiles,measurement,value
CCC(=O)[O-].CCC(=O)[O-].[Ca+2] [calcium propionate],time without mold growth (time until the bread sample molded),12 days
